Read-outs that look alike come from different tables or passages of the source.
Key:
E. feacalis = assay: Minimum inhibitory concentration (MIC) in vitro, agar dilution method; format: cell-based; details: hydrate
Summary of the method: (§1)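 Isolates from patients in Sichuan and Beijing areas. Method: agar dilution per CLSI/NCCLS. Values: MIC, with MIC50 and MIC90 inhibiting 50% and 90% of strains.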

E. feacium = assay: as above; format: cell-based
Summary of the method: as §1

S. epidermidis MRSE = assay: as above; format: cell-based; details: hydrate
Summary of the method: as §1

S. epidermidis MSSE = assay: as above; format: cell-based
Summary of the method: as §1

[1] = tested on: Staphylococcus aureus MRSA; assay: as above; format: cell-based
Summary of the method: as §1

[2] = tested on: Staphylococcus aureus MSSA; assay: as above; format: cell-based
Summary of the method: as §1

Staphylococcus aureus = assay: Minimum inhibitory concentration (MIC) in vitro, agar dilution method, quality control strain; format: cell-based; details: strain S. AT C C25923 (Table 7 No. 1); hydrate
Summary of the method: as §1

[3] = Solubility in different solvents according to Chinese Pharmacopeia (2005 edition); format: physicochemical; details: for Result: at the given solute:solvent ratio
Protocol: The solubility of the (S)—[N-3-(3′-fluoro-4′-(4″-phenylpiperazinyl))phenyl-2-oxo-5-oxazolelidinyl]methylacetamide hydrates was tested with different solvents, and the test results are shown in Tables 15-19. The solubility was measured according to Chinese Pharmacopeia (2005 edition).

[4] = E. feacalis (5 strains), clinically isolated
[5] = E. feacium (5 strains), clinically isolated, hydrate
[6] = S. ep MRSE (10 strains), clinically isolated
[7] = S. ep MSSE (10 strains), clinically isolated, hydrate
[8] = S. MRSA (10 strains), clinically isolated, hydrate
[9] = S. MSSA (11 strains), clinically isolated, hydrate

Structure (SMILES): CC(=O)NC[C@H]1CN(c2ccc(N3CCN(c4ccccc4)CC3)c(F)c2)C(=O)O1 [½ hydrate, (S)—[N-3-(3′-fluoro-4′-(4″-phenylpiperazinyl))phenyl-2-oxo-5-oxazolidinyl]methyl acetamide 1/2 hydrate]
- MIC50 (E. feacalis; [4]): 0.125 µg/mL
- MIC90 (E. feacalis; [4]): 0.25 µg/mL
- MICrange (E. feacalis; [4]): 0.06 to 0.25 µg/mL
- MIC (E. feacalis; strain Efa 54 (Table 8 No. 20)): 0.06 µg/mL
- MIC (E. feacalis; strain Efa 116 (Table 8 No. 16)): 0.25 µg/mL
- MIC (E. feacalis; strain Efa 3006 (Table 8 No. 18)): 0.06 µg/mL
- MIC (E. feacalis; strain Efa 33748 (Table 8 No. 17)): 0.25 µg/mL
- MIC50 (E. feacium; [5]): 0.5 µg/mL
- MIC90 (E. feacium; [5]): 1 µg/mL
- MICrange (E. feacium; [5]): 0.25 to 1 µg/mL
- MIC (E. feacium; strain Efm 98 (Table 8 No. 21), hydrate): 0.25 µg/mL
- MIC (E. feacium; strain Efm 171 (Table 8 No. 25), hydrate): 0.25 µg/mL
- MIC (E. feacium; strain Efm 197 (Table 8 No. 22)): 0.5 µg/mL
- MIC (E. feacium; strain Efm N3 (Table 8 No. 23), hydrate): 0.5 µg/mL
- MIC (E. feacium; strain Efm N4 (Table 8 No. 24), hydrate): 1 µg/mL
- MIC50 (S. epidermidis MRSE; [6]): 0.25 µg/mL
- MIC90 (S. epidermidis MRSE; [6]): 0.25 µg/mL
- MICrange (S. epidermidis MRSE; [6]): 0.25 µg/mL
- MIC (S. epidermidis MRSE; strain S. ep MRSE4 (Table 8 No. 9)): 0.25 µg/mL
- MIC (S. epidermidis MRSE; strain S. ep MRSE20 (Table 8 No. 6)): 0.25 µg/mL
- MIC (S. epidermidis MRSE; strain S. ep MRSE87 (Table 8 No. 13)): 0.25 µg/mL
- MIC (S. epidermidis MRSE; strain S. ep MRSE90 (Table 8 No. 10)): 0.25 µg/mL
- MIC (S. epidermidis MRSE; strain S. ep MRSE101 (Table 8 No. 7)): 0.25 µg/mL
- MIC (S. epidermidis MRSE; strain S. ep MRSE105 (Table 8 No. 11)): 0.25 µg/mL
- MIC (S. epidermidis MRSE; strain S. ep MRSE140 (Table 8 No. 14)): 0.25 µg/mL
- MIC (S. epidermidis MRSE; strain S. ep MRSE142 (Table 8 No. 12)): 0.25 µg/mL
- MIC (S. epidermidis MRSE; strain S. ep MRSE210 (Table 8 No. 15)): 0.25 µg/mL
- MIC (S. epidermidis MRSE; strain S. ep MRSE211 (Table 8 No. 8)): 0.25 µg/mL
- MIC90 (S. epidermidis MSSE; [7]): 0.25 µg/mL
- MICrange (S. epidermidis MSSE; [7]): 0.06 to 0.25 µg/mL
- MIC50 (S. epidermidis MSSE; Staphylococcus epidermidis, S. ep MSSE (10 strains), clinically isolated, read-out: MIC50): 0.25 µg/mL
- MIC (S. epidermidis MSSE; Staphylococcus epidermidis, strain S. ep MSSE113 (Table 7 No. 24), read-out: MIC): 0.25 µg/mL
- MIC (S. epidermidis MSSE; Staphylococcus epidermidis, strain S. ep MSSE118 (Table 8 No. 2), read-out: MIC): 0.25 µg/mL
- MIC (S. epidermidis MSSE; Staphylococcus epidermidis, strain S. ep MSSE140 (Table 8 No. 3), read-out: MIC): 0.25 µg/mL
- MIC (S. epidermidis MSSE; strain S. ep MSSE87 (Table 7 No. 23), hydrate): 0.06 µg/mL
- MIC (S. epidermidis MSSE; strain S. ep MSSE88 (Table 8 No. 5), hydrate): 0.25 µg/mL
- MIC (S. epidermidis MSSE; strain S. ep MSSE116 (Table 7 No. 25), hydrate): 0.25 µg/mL
- MIC (S. epidermidis MSSE; strain S. ep MSSE119 (Table 7 No. 27), hydrate): 0.25 µg/mL
- MIC (S. epidermidis MSSE; strain S. ep MSSE137 (Table 8 No. 4), hydrate): 0.25 µg/mL
- MIC (S. epidermidis MSSE; strain S. ep MSSE142 (Table 7 No. 26), hydrate): 0.125 µg/mL
- MIC (S. epidermidis MSSE; strain S. ep MSSE153 (Table 8 No. 1), hydrate): 0.25 µg/mL
- MIC50 [1, 8]: 0.25 µg/mL
- MIC90 [1, 8]: 0.25 µg/mL
- MICrange [1, 8]: 0.25 to 0.5 µg/mL
- MIC ([1]; Staphylococcus aureus, MRSA, strain S. MRSA 101 (Table 7 No. 14), read-out: MIC): 0.5 µg/mL
- MIC ([1]; Staphylococcus aureus, MRSA, strain S. MRSA 201 (Table 7 No. 13), read-out: MIC): 0.5 µg/mL
- MIC ([1]; Staphylococcus aureus, MRSA, strain S. MRSA B27 (Table 7 No. 21), read-out: MIC): 0.25 µg/mL
- MIC ([1]; strain S. MRSA 29 (Table 7 No. 15), hydrate): 0.25 µg/mL
- MIC ([1]; strain S. MRSA B105 (Table 7 No. 17), hydrate): 0.25 µg/mL
- MIC ([1]; strain S. MRSA B143 (Table 7 No. 19), hydrate): 0.25 µg/mL
- MIC ([1]; strain S. MRSA B151 (Table 7 No. 20), hydrate): 0.25 µg/mL
- MIC ([1]; strain S. MRSA B164 (Table 7 No. 16), hydrate): 0.25 µg/mL
- MIC ([1]; strain S. MRSA B199 (Table 7 No. 22), hydrate): 0.25 µg/mL
- MIC ([1]; strain S. MRSA B617 (Table 7 No. 18), hydrate): 0.25 µg/mL
- MIC50 [2, 9]: 0.25 µg/mL
- MIC90 [2, 9]: 0.25 µg/mL
- MICrange [2, 9]: 0.25 to 0.5 µg/mL
- MIC ([2]; Staphylococcus aureus, MSSA, strain S. MSSA 195 (Table 7 No. 6), read-out: MIC): 0.5 µg/mL
- MIC ([2]; Staphylococcus aureus, MSSA, strain S. MSSA 201 (Table 7 No. 11), read-out: MIC): 0.25 µg/mL
- MIC ([2]; Staphylococcus aureus, MSSA, strain S. MSSA 466 (Table 7 No. 8), read-out: MIC): 0.25 µg/mL
- MIC ([2]; Staphylococcus aureus, MSSA, strain S. MSSA 519 (Table 7 No. 9), read-out: MIC): 0.5 µg/mL
- MIC ([2]; strain S. MSSA 123 (Table 7 No. 3), hydrate): 0.25 µg/mL
- MIC ([2]; strain S. MSSA 187 (Table 7 No. 7), hydrate): 0.25 µg/mL
- MIC ([2]; strain S. MSSA 195 (Table 7 No. 12), hydrate): 0.25 µg/mL
- MIC ([2]; strain S. MSSA 232 (Table 7 No. 2), hydrate): 0.25 µg/mL
- MIC ([2]; strain S. MSSA 275 (Table 7 No. 10), hydrate): 0.25 µg/mL
- MIC ([2]; strain S. MSSA 520 (Table 7 No. 4), hydrate): 0.25 µg/mL
- MIC ([2]; strain S. MSSA 580 (Table 7 No. 5), hydrate): 0.25 µg/mL
- MIC (Staphylococcus aureus): 0.25 µg/mL
- Solubility compared with the anhydride ([3]; different solvents): sometimes more soluble than the anhydride
- Result ([3]; solvent 0.1N Hydrochloric acid): Dissolved
- Result ([3]; solvent 0.1N Sodium hydroxide): Insoluble
- Result ([3]; solvent Acetonitrile): Dissolved
- Result ([3]; solvent Ethanol): Dissolved
- Result ([3]; solvent Methanol): Dissolved
- Result ([3]; solvent Water, hydrate): Dissolved
